Test results taken from US11174252B2, “Heterocyclic compounds as kinase inhibitors” (priority 2018, dated 2021).
pIC50: −log10 of the molar value.

Assays:
[1] = biological target: CDK4 (Homo sapiens (Human), UniProt P11802); assay: In vitro kinase inhibition, luminescence (ADP-Glo) with retinoblastoma substrate; format: biochemical
[2] = biological target: CDK6 (Homo sapiens (Human), UniProt Q00534); assay: biochemical; format: biochemical
[3] = biological target: PI3Kδ kinase (Homo sapiens (Human), UniProt O00329); assay: PI3Kδ kinase ADP-Glo assay (Reaction Biology Corporation); settings: read-out: PI3Kδ IC50
PI3Kδ kinase, sequence (O00329 whole entry): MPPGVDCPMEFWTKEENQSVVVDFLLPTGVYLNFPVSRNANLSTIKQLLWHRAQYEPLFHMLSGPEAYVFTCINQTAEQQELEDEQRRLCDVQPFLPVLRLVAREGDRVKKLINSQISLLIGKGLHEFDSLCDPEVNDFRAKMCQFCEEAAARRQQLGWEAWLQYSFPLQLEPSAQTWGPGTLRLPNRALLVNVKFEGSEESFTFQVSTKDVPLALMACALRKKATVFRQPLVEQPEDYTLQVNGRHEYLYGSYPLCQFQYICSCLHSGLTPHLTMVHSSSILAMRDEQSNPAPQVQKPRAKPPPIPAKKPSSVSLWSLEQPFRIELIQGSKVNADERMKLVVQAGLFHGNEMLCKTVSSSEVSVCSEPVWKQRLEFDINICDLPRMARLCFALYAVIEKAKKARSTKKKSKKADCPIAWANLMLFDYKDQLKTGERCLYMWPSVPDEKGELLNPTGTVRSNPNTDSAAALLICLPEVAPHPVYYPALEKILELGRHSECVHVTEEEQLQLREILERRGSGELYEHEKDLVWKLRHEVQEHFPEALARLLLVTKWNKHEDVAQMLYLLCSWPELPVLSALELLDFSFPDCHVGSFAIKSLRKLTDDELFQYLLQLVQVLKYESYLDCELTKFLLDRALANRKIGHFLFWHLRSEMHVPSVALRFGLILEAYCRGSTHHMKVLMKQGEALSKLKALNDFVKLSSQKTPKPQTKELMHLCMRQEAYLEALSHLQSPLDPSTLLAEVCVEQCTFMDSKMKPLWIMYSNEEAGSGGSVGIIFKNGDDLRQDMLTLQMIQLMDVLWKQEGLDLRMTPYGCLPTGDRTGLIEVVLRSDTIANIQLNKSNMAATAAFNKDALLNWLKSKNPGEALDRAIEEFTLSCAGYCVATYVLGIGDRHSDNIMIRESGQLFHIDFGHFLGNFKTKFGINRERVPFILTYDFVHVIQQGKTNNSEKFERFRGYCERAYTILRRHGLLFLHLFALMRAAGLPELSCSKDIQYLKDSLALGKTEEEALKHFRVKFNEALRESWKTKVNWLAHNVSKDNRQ
PI3Kδ kinase, sequence (P27986 whole entry partner): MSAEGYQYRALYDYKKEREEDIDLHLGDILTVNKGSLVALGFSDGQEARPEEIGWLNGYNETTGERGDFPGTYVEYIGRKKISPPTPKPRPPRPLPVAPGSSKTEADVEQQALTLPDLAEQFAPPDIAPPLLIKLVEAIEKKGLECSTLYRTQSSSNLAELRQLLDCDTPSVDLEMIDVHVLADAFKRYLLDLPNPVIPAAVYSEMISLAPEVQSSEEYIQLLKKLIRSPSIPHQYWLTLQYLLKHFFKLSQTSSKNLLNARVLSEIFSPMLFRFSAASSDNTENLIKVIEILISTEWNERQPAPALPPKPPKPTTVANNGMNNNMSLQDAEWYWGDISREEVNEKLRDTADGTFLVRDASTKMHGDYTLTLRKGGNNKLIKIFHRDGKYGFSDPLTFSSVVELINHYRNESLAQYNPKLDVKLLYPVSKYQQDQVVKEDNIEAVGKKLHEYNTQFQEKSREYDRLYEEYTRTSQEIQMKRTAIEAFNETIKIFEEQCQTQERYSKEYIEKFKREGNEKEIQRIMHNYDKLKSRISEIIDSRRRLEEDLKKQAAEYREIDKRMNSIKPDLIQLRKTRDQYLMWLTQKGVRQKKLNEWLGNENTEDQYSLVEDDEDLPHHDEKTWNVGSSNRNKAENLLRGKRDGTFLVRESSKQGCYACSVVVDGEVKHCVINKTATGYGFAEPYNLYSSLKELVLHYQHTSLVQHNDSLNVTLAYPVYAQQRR

[4] = test system: MCF-7; assay: Cancer cell proliferation assay, single agent; format: cell-based; settings: Homo sapiens, MCF7; MCF-7 cells; treated for 24-168 hours; read-out: IC50 (nM) MCF-7
[5] = biological target: FMS kinase (Homo sapiens (Human), UniProt P07333); assay: LanthaScreen kinase assay (ATP, fluorescent-PolyGT substrate, TR-FRET); format: biochemical
FMS kinase, sequence (P07333 20-972): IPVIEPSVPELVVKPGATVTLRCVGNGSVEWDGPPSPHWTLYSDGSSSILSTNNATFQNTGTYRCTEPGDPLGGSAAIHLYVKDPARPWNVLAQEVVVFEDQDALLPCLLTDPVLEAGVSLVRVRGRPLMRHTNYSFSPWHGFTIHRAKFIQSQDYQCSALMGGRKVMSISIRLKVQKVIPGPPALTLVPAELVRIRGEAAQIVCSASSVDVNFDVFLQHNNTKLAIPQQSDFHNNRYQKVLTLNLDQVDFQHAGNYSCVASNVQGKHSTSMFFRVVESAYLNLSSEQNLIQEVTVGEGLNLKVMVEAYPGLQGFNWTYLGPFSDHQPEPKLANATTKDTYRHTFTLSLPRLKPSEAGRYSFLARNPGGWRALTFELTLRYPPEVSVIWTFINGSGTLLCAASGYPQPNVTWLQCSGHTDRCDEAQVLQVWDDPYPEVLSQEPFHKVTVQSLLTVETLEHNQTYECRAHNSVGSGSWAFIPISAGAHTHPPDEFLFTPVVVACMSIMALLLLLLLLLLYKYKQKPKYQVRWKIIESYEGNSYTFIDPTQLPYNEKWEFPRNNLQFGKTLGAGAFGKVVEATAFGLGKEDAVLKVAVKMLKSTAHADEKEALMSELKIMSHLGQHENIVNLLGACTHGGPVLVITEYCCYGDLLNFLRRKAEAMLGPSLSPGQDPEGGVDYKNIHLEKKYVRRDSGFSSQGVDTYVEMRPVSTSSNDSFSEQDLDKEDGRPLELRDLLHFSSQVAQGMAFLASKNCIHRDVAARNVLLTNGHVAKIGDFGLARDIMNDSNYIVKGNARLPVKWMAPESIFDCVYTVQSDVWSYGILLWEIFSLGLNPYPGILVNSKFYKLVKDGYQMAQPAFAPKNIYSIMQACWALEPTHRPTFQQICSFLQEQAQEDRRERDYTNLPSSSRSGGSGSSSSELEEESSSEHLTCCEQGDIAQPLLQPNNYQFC

[6] = test system: DU4475; assay: Cancer cell proliferation assay, single agent; format: cell-based; settings: Homo sapiens, DU-4475; DU4475 cells; treated for 24-168 hours; read-out: IC50 (nM) DU4475

CDK4, sequence (P11802 whole entry): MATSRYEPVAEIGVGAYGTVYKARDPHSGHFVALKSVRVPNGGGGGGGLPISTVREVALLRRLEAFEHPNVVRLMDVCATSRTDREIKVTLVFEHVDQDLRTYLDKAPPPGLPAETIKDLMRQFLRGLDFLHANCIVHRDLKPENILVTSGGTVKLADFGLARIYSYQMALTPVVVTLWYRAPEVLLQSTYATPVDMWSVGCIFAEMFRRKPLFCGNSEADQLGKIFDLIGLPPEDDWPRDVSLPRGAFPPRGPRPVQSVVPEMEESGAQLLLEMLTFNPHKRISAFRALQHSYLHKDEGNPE
CDK4, sequence (P24385 whole entry partner): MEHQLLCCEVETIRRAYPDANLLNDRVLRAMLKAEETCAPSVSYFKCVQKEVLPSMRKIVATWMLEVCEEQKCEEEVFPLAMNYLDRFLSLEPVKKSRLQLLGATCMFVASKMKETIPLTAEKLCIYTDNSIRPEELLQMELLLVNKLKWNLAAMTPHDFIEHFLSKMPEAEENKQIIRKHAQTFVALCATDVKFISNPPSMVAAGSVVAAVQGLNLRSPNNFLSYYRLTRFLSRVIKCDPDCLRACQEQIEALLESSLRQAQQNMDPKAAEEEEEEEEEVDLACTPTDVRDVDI

CC(C)N1CCOc2c(F)cc(-c3nc(Nc4ccc(N5CCC(O)CC5)c(F)c4)ncc3F)cc21 [Compound 445, 1-(2-fluoro-4-((5-fluoro-4-(8-fluoro-4-isopropyl-3,4-dihydro-2H-benzo[b][1,4]oxazin-6-yl)pyrimidin-2-yl)amino)phenyl)piperidin-4-ol]
pIC50 [1]: 7.51
pIC50 [2]: 7.16
pIC50 [3]: < 4.30
IC50 [4]: 120 nM
pIC50 [5]: 7.16

CC(C)N1CCOc2c(F)cc(-c3nc(Nc4ccc(N5CCN(C(=O)CN(C)C)CC5)c(F)c4)ncc3F)cc21 [Compound 449, 2-(dimethylamino)-1-(4-(2-fluoro-4-((5-fluoro-4-(8-fluoro-4-isopropyl-3,4-dihydro-2H-benzo[b][1,4]oxazin-6-yl)pyrimidin-2-yl)amino)phenyl)piperazin-1-yl)ethan-1-one]
pIC50 [1]: 8.96
pIC50 [2]: 9.05
pIC50 [3]: 5.35
IC50 [4]: 50 nM
pIC50 [5]: 8.02

CC(C)N1CCOc2c(F)cc(-c3nc(Nc4ccc(C5CCN(C(=O)CN(C)C)CC5)cn4)ncc3F)cc21 [Compound 450, 2-(dimethylamino)-1-(4-(6-((5-fluoro-4-(8-fluoro-4-isopropyl-3,4-dihydro-2H-benzo[b][1,4]oxazin-6-yl)pyrimidin-2-yl)amino)pyridin-3-yl)piperidin-1-yl)ethan-1-one]
pIC50 [1]: 9.30
pIC50 [2]: 9.52
pIC50 [3]: < 4.30
IC50 [4]: 240 nM
pIC50 [5]: 6.67

CC(C)N1CCOc2c(F)cc(-c3nc(Nc4ccc(C5CCN(C(=O)CN(C)C)CC5)c(F)c4)ncc3F)cc21 [Compound 451, 2-(dimethylamino)-1-(4-(2-fluoro-4-((5-fluoro-4-(8-fluoro-4-isopropyl-3,4-dihydro-2H-benzo[b][1,4]oxazin-6-yl)pyrimidin-2-yl)amino)phenyl)piperidin-1-yl)ethan-1-one]
pIC50 [1]: 7.55
pIC50 [2]: 7.57
pIC50 [3]: < 4.30
IC50 [4]: 30 nM
pIC50 [5]: 7.55

CC(C)N1CCOc2c(F)cc(-c3nc(Nc4cnn(C5CCC(O)CC5)c4)ncc3F)cc21 (stereo not shown) [Compound 452, 4-(4-((5-fluoro-4-(8-fluoro-4-isopropyl-3,4-dihydro-2H-benzo[b][1,4]oxazin-6-yl)pyrimidin-2-yl)amino)-1H-pyrazol-1-yl)cyclohexan-1-ol]
pIC50 [1]: 7.70
pIC50 [2]: 7.35
pIC50 [3]: 6.23
IC50 [4]: 50 nM
pIC50 [5]: 8.10

CC(C)N1CCOc2c(F)cc(-c3nc(Nc4ccc(N5CCN(C(=O)N(C)C)CC5)cn4)ncc3F)cc21 [Compound 453, 4-(6-((5-fluoro-4-(8-fluoro-4-isopropyl-3,4-dihydro-2H-benzo[b][1,4]oxazin-6-yl)pyrimidin-2-yl)amino)pyridin-3-yl)-N,N-dimethylpiperazine-1-carboxamide]
pIC50 [1]: 7.92
pIC50 [2]: 7.52
pIC50 [3]: < 4.30
IC50 [4]: 695 nM
pIC50 [5]: < 5.30

CC(C)N1CCOc2c(F)cc(-c3nc(Nc4ccc(C5CCN(C(=O)N(C)C)CC5)cn4)ncc3F)cc21 [Compound 454, 4-(6-((5-fluoro-4-(8-fluoro-4-isopropyl-3,4-dihydro-2H-benzo[b][1,4]oxazin-6-yl)pyrimidin-2-yl)amino)pyridin-3-yl)-N,N-dimethylpiperidine-1-carboxamide]
pIC50 [1]: 7.74
pIC50 [2]: 7.08
pIC50 [3]: < 4.30
IC50 [4]: 920 nM
pIC50 [5]: < 5.30

CC(C)N1CCOc2c(F)cc(-c3nc(Nc4ccc5c(c4)CN(C(=O)CN(C)C)CC5)ncc3F)cc21 [Compound 455, 2-(dimethylamino)-1-(7-((5-fluoro-4-(8-fluoro-4-isopropyl-3,4-dihydro-2H-benzo[b][1,4]oxazin-6-yl)pyrimidin-2-yl)amino)-3,4-dihydroisoquinolin-2(1H)-yl)ethan-1-one]
pIC50 [1]: 8.35
pIC50 [2]: 8.52
pIC50 [3]: 4.88
IC50 [4]: < 4 nM
pIC50 [5]: 8.82

CC(C)N1CCOc2c(F)cc(-c3nc(Nc4ccc(N5CCS(=O)(=O)CC5)c(F)c4)ncc3F)cc21 [Compound 465, 4-(2-fluoro-4-((5-fluoro-4-(8-fluoro-4-isopropyl-3,4-dihydro-2H-benzo[b][1,4]oxazin-6-yl)pyrimidin-2-yl)amino)phenyl)thiomorpholine 1,1-dioxide]
pIC50 [1]: 7.43
pIC50 [2]: 6.91
pIC50 [3]: 6.40
IC50 [4]: 80 nM
pIC50 [5]: 7.18

CN1CCC(c2ccc(Nc3ncc(F)c(-c4cc(F)c5c(c4)N(C)CCO5)n3)cc2F)CC1 [Compound 466, 5-fluoro-N-(3-fluoro-4-(1-methylpiperidin-4-yl)phenyl)-4-(8-fluoro-4-methyl-3,4-dihydro-2H-benzo[b][1,4]oxazin-6-yl)pyrimidin-2-amine]
pIC50 [1]: 8.40
pIC50 [2]: 8.00
pIC50 [3]: 5.95
IC50 [4]: 105 nM
pIC50 [5]: 7.46

CN1CCOc2c(F)cc(-c3nc(Nc4ccc(N5CCC(N(C)C)CC5)c(F)c4)ncc3F)cc21 [Compound 467, N-(4-(4-(dimethylamino)piperidin-1-yl)-3-fluorophenyl)-5-fluoro-4-(8-fluoro-4-methyl-3,4-dihydro-2H-benzo[b][1,4]oxazin-6-yl)pyrimidin-2-amine]
pIC50 [1]: 8.40
pIC50 [2]: 8.30
pIC50 [3]: 5.61
IC50 [4]: 185 nM
pIC50 [5]: 7.85

CCCN1CCOc2c(F)cc(-c3nc(Nc4ccc(N5CCC(N(C)C)CC5)c(F)c4)ncc3F)cc21 [Compound 468, N-(4-(4-(dimethylamino)piperidin-1-yl)-3-fluorophenyl)-5-fluoro-4-(8-fluoro-4-propyl-3,4-dihydro-2H-benzo[b][1,4]oxazin-6-yl)pyrimidin-2-amine]
pIC50 [1]: 8.10
pIC50 [2]: 8.10
pIC50 [3]: 5.42
IC50 [4]: 95 nM
pIC50 [5]: 7.44

CC(C)N1CCOc2c(F)cc(-c3nc(Nc4ccc(N5CCN6CCCC6C5)c(F)c4)ncc3F)cc21 (stereo not shown) [Compound 473, 5-fluoro-N-(3-fluoro-4-(hexahydropyrrolo[1,2-a]pyrazin-2(1H)-yl)phenyl)-4-(8-fluoro-4-isopropyl-3,4-dihydro-2H-benzo[b][1,4]oxazin-6-yl)pyrimidin-2-amine]
IC50 [6]: 55 nM
pIC50 [3]: 5.50
IC50 [4]: 30 nM
pIC50 [5]: 8.15

CC(=O)N1CCN(c2ccc(Nc3ncc(F)c(-c4cc(F)c5c(c4)N(C(C)C)CCO5)n3)nc2)CC1 [Compound 474, 1-(4-(6-((5-fluoro-4-(8-fluoro-4-isopropyl-3,4-dihydro-2H-benzo[b][1,4]oxazin-6-yl)pyrimidin-2-yl)amino)pyridin-3-yl)piperazin-1-yl)ethan-1-one]
IC50 [6]: 940 nM
pIC50 [3]: 5.93
IC50 [4]: 300 nM
pIC50 [5]: 6.11

CC(C)N1CCOc2c(F)cc(-c3nc(Nc4ccc(N5CCC(C)(O)CC5)cn4)ncc3F)cc21 [Compound 484, 1-(6-((5-fluoro-4-(8-fluoro-4-isopropyl-3,4-dihydro-2H-benzo[b][1,4]oxazin-6-yl)pyrimidin-2-yl)amino)pyridin-3-yl)-4-methylpiperidin-4-ol]
IC50 [6]: 2480 nM
pIC50 [3]: < 4.30
IC50 [4]: 1340 nM
pIC50 [5]: < 5.30

CC(C)N1CCOc2c(F)cc(-c3nc(Nc4ccc(N5CCC(CO)CC5)cn4)ncc3F)cc21 [Compound 485, (1-(6-((5-fluoro-4-(8-fluoro-4-isopropyl-3,4-dihydro-2H-benzo[b][1,4]oxazin-6-yl)pyrimidin-2-yl)amino)pyridin-3-yl)piperidin-4-yl)methanol]
IC50 [6]: 555 nM
pIC50 [3]: < 4.30
IC50 [4]: 470 nM
pIC50 [5]: 5.49
